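96-well plates; 48 h exposure; 5 concentrations. Endpoints by linear interpolation between flanking doses. Not reached: highest tested concentration assigned. GI50 is the concentration that inhibits growth by half. The concentration for full growth arrest is given as TGI.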
Key:
Assay in all cases: NCI tumour cell line growth inhibition, 48 h
COLO 205 colon = system: COLO 205 colon
HS 578T breast = system: HS 578T breast
NCI/ADR-RES ovarian = system: NCI/ADR-RES ovarian
OVCAR-5 ovarian = system: OVCAR-5 ovarian
SF-539 CNS = system: SF-539 CNS
SK-MEL-28 melanoma = system: SK-MEL-28 melanoma
SK-MEL-5 melanoma = system: SK-MEL-5 melanoma
UACC-257 melanoma = system: UACC-257 melanoma
MDA-MB-435 = system: MDA-MB-435
RXF 393 renal = system: RXF 393 renal

SMILES | GI50 (COLO 205 colon) [nM] | TGI (COLO 205 colon) [nM] | GI50 (HS 578T breast) [nM] | TGI (HS 578T breast) [nM] | GI50 (NCI/ADR-RES ovarian) [nM] | TGI (NCI/ADR-RES ovarian) [nM] | GI50 (OVCAR-5 ovarian) [nM] | TGI (OVCAR-5 ovarian) [nM] | GI50 (SF-539 CNS) [nM] | TGI (SF-539 CNS) [nM] | GI50 (SK-MEL-28 melanoma) [nM] | TGI (SK-MEL-28 melanoma) [nM] | GI50 (SK-MEL-5 melanoma) [nM] | TGI (SK-MEL-5 melanoma) [nM] | GI50 (UACC-257 melanoma) [nM] | TGI (UACC-257 melanoma) [nM] | GI50 (MDA-MB-435) [nM] | TGI (MDA-MB-435) [nM] | TGI (RXF 393 renal) [nM] | GI50 (RXF 393 renal) [nM]
COc1ccc(/C=N/NC(=O)Cn2c(-c3ccc(S(C)(=O)=O)cc3)nc3cc(Cl)ccc32)cc1 | 907 | 2420 | 1770 | > 50000 | 956 | > 50000 | 3540 | > 50000 | 855 | 3350 | 4480 | > 50000 | 964 | 8550 | > 50000 | > 50000 | – | – | – | –
COc1ccc2c(c1)OC1=C(C(=O)OC1)C2c1cc(OC)c2c(c1)OCO2 (stereo unspecified) | 31 | 90.8 | 34.8 | > 100000 | – | – | 153 | > 100000 | 33.3 | > 100000 | 34.2 | > 100000 | 38.3 | 325 | > 46100 | > 100000 | < 12.2 | 37.1 | – | –
COc1cc2nc(NCCCCCNC(=O)c3ccco3)nc(N)c2cc1OC | – | 38200 | – | – | – | – | – | > 100000 | – | 36200 | – | 36200 | – | 34400 | – | 38100 | – | – | 83500 | –
CCC1(O)C(=O)OCc2c1cc1n(c2=O)Cc2cc3cc(N)ccc3nc2-1 (stereo unspecified) | – | 7250 | – | > 95200 | – | 266 | – | 2940 | – | < 10 | 493 | 41800 | – | 76.1 | – | 1890 | – | – | 1120 | 126
C/C=C(\C)c1cc(O)c(C)c2c1Oc1cc(O)c(Cl)c(C)c1C(=O)O2 | – | 49300 | – | – | – | – | – | 30200 | – | 48200 | – | 72200 | – | 26900 | – | 44200 | – | – | 34100 | –
O=C(O)/C(Cl)=C(\Cl)C(=O)Nc1ccc(Cl)c(Cl)c1Cl | – | 34800 | – | – | – | – | – | 32100 | – | 35600 | – | 42700 | – | 68900 | – | 36200 | – | – | – | –
COC1O[C@@H]2C[C@H]3C(C)(C)CCC[C@]3(C)C3=CCCC1[C@@]32C (stereo partly specified) | > 100000 | > 100000 | > 100000 | > 100000 | – | – | > 100000 | > 100000 | > 100000 | > 100000 | > 100000 | > 100000 | > 100000 | > 100000 | > 100000 | > 100000 | > 100000 | > 100000 | > 100000 | > 100000
CN1CCN(Cc2ccc(NC(=O)c3[nH]ncc3Nc3ncnc4sc5c(c34)CCCC5)cc2)CC1 | – | – | 151 | 1740 | – | – | 383 | 1730 | 457 | 1710 | 512 | 2080 | 543 | 1870 | 1210 | 3290 | 291 | 1710 | 949 | 229
COc1ccc(C2[C@@H](Cl)C(=O)N2c2cc(OC)c(OC)c(OC)c2)cc1Cl (stereo partly specified) | 203 | 512 | 70.5 | 70300 | 69.2 | > 100000 | 369 | > 100000 | – | – | 654 | 87300 | 102 | 795 | – | – | – | – | 65500 | 61.5

Reference: PubChem BioAssay (NCI)
